In article PMC11640942, “The Role of Medium Polarity in the Efficiency of Albumin Binding with Hydrophobic Ligands: Experimental Studies and a Molecular Dynamics Investigation” (International Journal of Molecular Sciences, 2024):
Values after ≈ are worked out from the molar mass of the structure shown. Read-outs that look alike come from different tables or passages of the source. Values belong to the compound of their own block, whether it stands above or below them.

Tests used:
[1] = molecular target: T1, human serum albumin (HSA) (Homo sapiens, UniProt P02768); experiment: Binding constants of DPH and OG with HSA by increase in the probe's fluorescence (titration with HSA)
T1 construct: purchased Sigma-Aldrich Chemical Co. (St. Louis, MO, USA)
Method: The slit widths were set at 10 nm for both excitation and emission wavelengths, and a 3 mL quartz cuvette with a 10 mm path length and that was magnetically stirred was used during the measurements. The experiments were performed in pure water or solutions containing 1.0 mol L^−1 NaCl, 10 and 20% (w/w) of 1,4-dioxane. […] After each addition, the mixtures were incubated for 2 min before the fluorescence measurements. Equation (2) was applied to determine the binding constant. […] The association constant (Ka) was calculated as 1/Kd. The same experimental protocol was used to determine the binding constant with OG. In this case, the fixed amount of OG was 5.0 µmol L^−1 and HSA 0–25.0 µmol L^−1. The excitation was set at 305 nm, and the emission was 320 to 450 nm. The non-linear fitting was obtained using the GraphPad Prism version 8.00 for Windows (GraphPad Software, San Diego, CA, USA). (2) F−F0/F∞−F0=L+[P]+Kd−L+[P]+Kd)^2−4[L][P]/2[L]

[2] = molecular target: T1, human serum albumin (HSA); experiment: Time-resolved fluorescence (average lifetime) of DPH, free and complexed with HSA
Method: The measurements were performed using a mini-tau filter-based fluorescence lifetime spectrometer coupled to a Time-Correlated Single Photon Counting (TCSPC) system (Edinburgh Instruments, Livingston, UK). The excitation was performed using a 370 ± 10 nm picosecond pulsed laser, and the emission was using a […] interference filter. The fluorescence decays were fitted using the multi-exponential decay model, Equation (5), and the average lifetime <τ> was calculated using Equation (6). The quality of the fit was assessed by χ^2 values and residuals. […] (5) IT=∑i=1nfie^−T/τi (6) <τ>=∑i=1nfiτi

[3] = cited from earlier work
[4] = molecular target: T1, human serum albumin (HSA); experiment: Binding of quercetin or rutin with HSA by quenching of the protein's intrinsic fluorescence; details: pure water vs 20% 1,4-dioxane, fit to Equation (3)
Method: The interactions between HSA and quercetin or rutin were evaluated by quenching the intrinsic fluorescence of the protein. The excitation was set at 295 nm, and the emission at 310 to 410 nm. […] After each addition of the ligands, the mixtures were incubated for 2 min before the fluorescence measurements. […] Since a 1:1 complex was assumed, n was set as 1. Therefore, Kd and Φ were treated as the fitting parameters in the non-linear least-squares analysis. Before determining the binding constants, the fluorescent intensities were corrected for the inner filter effect (Equation (4)) caused by the attenuation of the excitation and emission signals provoked by the light absorption of the flavonoids. Fcorr and Fobs are the corrected and observed fluorescence. Abex and Abem are the absorptions of the mixture at excitation and emission wavelength, respectively. The absorbance spectra were measured using a Perkin Elmer Lambda 35 UV-visible spectrophotometer (Shelton, CT, USA), and the fluorescence spectra were obtained using a Perkin Elmer LS 55 spectrofluorometer (Shelton, CT, USA). (3) Fratio=1-Φ[([…])/2nP0] (4) Fcorr=Fobs×10^Abex+Abem/2

[5] = cited from earlier work; remark: listed apart in the source
[6] = 1,4-dioxane 0% (pure water), 25 °C, fit to Equation (2), read-out: association constant Ka (converted)
[7] = 1,4-dioxane 20% w/w, 25 °C, fit to Equation (2), read-out: association constant Ka (converted)

T1 sequence (P02768 25-609): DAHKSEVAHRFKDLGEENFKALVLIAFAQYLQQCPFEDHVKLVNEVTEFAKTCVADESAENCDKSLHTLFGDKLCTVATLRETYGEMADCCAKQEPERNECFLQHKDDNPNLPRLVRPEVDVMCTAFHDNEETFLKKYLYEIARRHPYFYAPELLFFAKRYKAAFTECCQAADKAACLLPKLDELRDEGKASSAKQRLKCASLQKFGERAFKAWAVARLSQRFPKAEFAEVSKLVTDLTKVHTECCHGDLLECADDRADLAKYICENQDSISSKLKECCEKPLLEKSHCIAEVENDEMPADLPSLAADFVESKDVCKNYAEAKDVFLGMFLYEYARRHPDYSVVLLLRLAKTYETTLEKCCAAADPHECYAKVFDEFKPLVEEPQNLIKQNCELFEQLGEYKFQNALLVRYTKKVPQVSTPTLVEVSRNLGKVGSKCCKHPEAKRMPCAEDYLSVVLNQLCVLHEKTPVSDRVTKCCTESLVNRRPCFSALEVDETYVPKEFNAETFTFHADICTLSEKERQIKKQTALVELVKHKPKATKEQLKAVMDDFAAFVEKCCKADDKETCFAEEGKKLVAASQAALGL

- Kd [1, 6]: 505 nM
- Kd ([1]; 1,4-dioxane 10% w/w, 25 °C, fit to Equation (2), read-out: association constant Ka (converted)): 1890 nM
- Kd [1, 7]: 5880 nM
- HSA concentration needed to reach saturation ([1]; 1,4-dioxane (20%)): 10 µM
- Kd ([1]; Figure 4, printed as (10%) 1,4-dioxane, read-out: Ka (means and SD of triplicates) (converted)): 2220 nM
- Kd ([1]; Figure 4, printed as (20%) 1,4-dioxane, read-out: Ka (means and SD of triplicates) (converted)): 485 nM
- Kd ([1]; NaCl 1.0 mol L^−1 (dielectric constant 69.3), read-out: binding constant Ka (converted)): 4350 nM
- lower HSA concentration at saturation when the solvent was absent ([1]; no solvent vs 1,4-dioxane): 5 fold
- HSA concentration needed to reach saturation ([1]; pure water): 2.0 µM
- Kd ([1]; pure water (dielectric constant 80.3), NaCl comparison experiment, read-out: binding constant Ka (converted)): 1010 nM
- average fluorescence lifetime ([2]; 20% 1,4-dioxane with HSA added): 7.1 nanoseconds
- average fluorescence lifetime ([2]; 20% 1,4-dioxane, no protein): 2.6 nanoseconds
- average fluorescence lifetime ([2]; pure 1,4-dioxane): 7.8 nanoseconds
SMILES: C(=CC=Cc1ccccc1)C=Cc1ccccc1 [DPH, 1,6-diphenyl-1,3,5-hexatriene]

SMILES: CCCCCCCCOC(=O)c1cc(O)c(O)c(O)c1 [OG, octyl gallate]
- Kd [1, 6]: 192 nM
- Kd [1, 7]: 4550 nM
- increase of binding constant in pure water compared to 1,4-dioxane ([1]; pure water vs 20% 1,4-dioxane): 25 fold

SMILES: O=c1c(O)c(-c2ccc(O)c(O)c2)oc2cc(O)cc(O)c12 [quercetin]
- water solubility [3]: 60 µg/mL (≈ 199 µM)
- effect of 1,4-dioxane on binding strength [4]: decreased
- logP [5]: 0.35

SMILES: C[C@@H]1O[C@@H](OC[C@H]2O[C@@H](Oc3c(-c4ccc(O)c(O)c4)oc4cc(O)cc(O)c4c3=O)[C@H](O)[C@@H](O)[C@@H]2O)[C@H](O)[C@H](O)[C@H]1O [rutin]
- effect of 1,4-dioxane on binding strength [4]: not
- logP [5]: −2.28
